{"source": "patent US8952024B2", "about": "“Herbicidal pyrimidone derivatives” (E I du Pont de Nemours and Company, priority 2009, dated 2015)", "experiment_in_all_cases": "Test B pre-/postemergence plant response", "format_in_all_cases": "in vivo", "key": {"[1]": {"tested_on": "giant foxtail (Setaria faberii)", "in_short": "(§1)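 Plants treated either at seeding (loam/sand soil) or postemergence at 2 to 18 cm height, using a surfactant-containing non-phytotoxic solvent formulation. Evaluation was visual after 13 to 15 days, 0 to 100 scale relative to controls.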"}, "[2]": {"tested_on": "velvetleaf (Abutilon theophrasti)", "in_short": "as §1"}, "kochia (Kochia scoparia)": {"tested_on": "kochia (Kochia scoparia)", "in_short": "as §1"}, "[3]": {"tested_on": "johnsongrass (Sorghum halepense)", "in_short": "as §1"}, "[4]": {"tested_on": "woolly cupgrass (Eriochloa villosa)", "in_short": "as §1"}, "[5]": {"tested_on": "pigweed (Amaranthus retroflexus)", "in_short": "as §1"}, "[6]": {"tested_on": "lambsquarters (Chenopodium album)", "in_short": "as §1"}, "[7]": {"tested_on": "yellow nutsedge (Cyperus esculentus)", "in_short": "as §1"}, "[8]": {"tested_on": "wheat (Triticum aestivum)", "in_short": "as §1"}, "[9]": {"tested_on": "large crabgrass (Digitaria sanguinalis)", "in_short": "as §1"}, "[10]": {"tested_on": "goosegrass (Eleusine indica)", "in_short": "as §1"}, "[11]": {"tested_on": "green foxtail (Setaria viridis)", "in_short": "as §1"}, "[12]": {"tested_on": "downy bromegrass (Bromus tectorum)", "in_short": "as §1"}, "[13]": {"settings": "31 g ai/ha, postemergence, scale 0 to 100, 0 is no effect, 100 is complete control"}, "[14]": {"settings": "62 g ai/ha, postemergence, 0 is no effect, 100 is complete control, 13 to 15 days"}, "[15]": {"settings": "Postemergence, 125 g ai/ha, scale 0 to 100 (0 no effect, 100 complete control)"}, "[16]": {"settings": "Postemergence, 250 g ai/ha, scale 0 to 100 (0 no effect, 100 complete control)"}, "[17]": {"settings": "Preemergence, 31 g ai/ha, scale 0 to 100 (0 no effect, 100 complete control)"}, "[18]": {"settings": "Preemergence, 62 g ai/ha, scale 0 to 100 (0 no effect, 100 complete control)"}, "[19]": {"settings": "Preemergence, 125 g ai/ha, scale 0 to 100, 0 no effect, 100 complete control"}, "[20]": {"settings": "Preemergence, 250 g ai/ha, 0 to 100 scale"}}, "data": [{"molecule": "COCCn1c(-c2cc(F)cc(F)c2)ncc(C(=O)C2=C(O)CCCC2=O)c1=O", "note": "[Compound 119]", "values": [{"measurement": "Plant response rating, Foxtail, Giant", "setting": "[1]; [13]", "value": 75}, {"measurement": "Foxtail, Giant plant response rating (0 to 100 scale)", "setting": "[1]; [14]", "value": 85}, {"measurement": "Plant response rating, Foxtail, Giant", "setting": "[1]; [15]", "value": 95}, {"measurement": "Plant response rating, Foxtail, Giant", "setting": "[1]; [16]", "value": 95}, {"measurement": "Plant response rating, Foxtail, Giant", "setting": "[1]; [17]", "value": 55}, {"measurement": "Plant response rating, Foxtail, Giant", "setting": "[1]; [18]", "value": 85}, {"measurement": "Plant response rating, Foxtail, Giant", "setting": "[1]; [19]", "value": 95}, {"measurement": "Foxtail, Giant plant response rating", "setting": "[1]; [20]", "value": 100}, {"measurement": "Velvetleaf plant response rating (0 to 100 scale)", "setting": "[2]; [14]", "value": 80}, {"measurement": "Plant response rating, Velvetleaf", "setting": "[2]; [15]", "value": 100}, {"measurement": "Plant response rating, Velvetleaf", "setting": "[2]; [16]", "value": 100}, {"measurement": "Plant response rating, Velvetleaf", "setting": "[2]; [17]", "value": 75}, {"measurement": "Plant response rating, Velvetleaf", "setting": "[2]; [18]", "value": 80}, {"measurement": "Plant response rating, Velvetleaf", "setting": "[2]; [19]", "value": 100}, {"measurement": "Velvetleaf plant response rating", "setting": "[2]; [20]", "value": 100}, {"measurement": "Plant response rating, Kochia", "setting": "kochia (Kochia scoparia); [13]", "value": 40}, {"measurement": "Kochia plant response rating (0 to 100 scale)", "setting": "kochia (Kochia scoparia); [14]", "value": 75}, {"measurement": "Plant response rating, Kochia", "setting": "kochia (Kochia scoparia); [15]", "value": 95}, {"measurement": "Plant response rating, Kochia", "setting": "kochia (Kochia scoparia); [16]", "value": 100}, {"measurement": "Plant response rating, Kochia", "setting": "kochia (Kochia scoparia); [17]", "value": 0}, {"measurement": "Plant response rating, Kochia", "setting": "kochia (Kochia scoparia); [18]", "value": 0}, {"measurement": "Plant response rating, Kochia", "setting": "kochia (Kochia scoparia); [19]", "value": 55}, {"measurement": "Kochia plant response rating", "setting": "kochia (Kochia scoparia); [20]", "value": 98}, {"measurement": "Plant response rating, Johnsongrass", "setting": "[3]; [13]", "value": 10}, {"measurement": "Johnsongrass plant response rating (0 to 100 scale)", "setting": "[3]; [14]", "value": 40}, {"measurement": "Plant response rating, Johnsongrass", "setting": "[3]; [15]", "value": 75}, {"measurement": "Plant response rating, Johnsongrass", "setting": "[3]; [16]", "value": 80}, {"measurement": "Plant response rating, Johnsongrass", "setting": "[3]; [17]", "value": 50}, {"measurement": "Plant response rating, Johnsongrass", "setting": "[3]; [18]", "value": 85}, {"measurement": "Plant response rating, Johnsongrass", "setting": "[3]; [19]", "value": 95}, {"measurement": "Johnsongrass plant response rating", "setting": "[3]; [20]", "value": 95}, {"measurement": "Plant response rating, Cupgrass, Woolly", "setting": "[4]; [13]", "value": 75}, {"measurement": "Cupgrass, Woolly plant response rating (0 to 100 scale)", "setting": "[4]; [14]", "value": 98}, {"measurement": "Plant response rating, Cupgrass, Woolly", "setting": "[4]; [15]", "value": 98}, {"measurement": "Plant response rating, Cupgrass, Woolly", "setting": "[4]; [16]", "value": 100}, {"measurement": "Plant response rating, Cupgrass, Woolly", "setting": "[4]; [17]", "value": 65}, {"measurement": "Plant response rating, Cupgrass, Woolly", "setting": "[4]; [18]", "value": 75}, {"measurement": "Plant response rating, Cupgrass, Woolly", "setting": "[4]; [19]", "value": 95}, {"measurement": "Cupgrass, Woolly plant response rating", "setting": "[4]; [20]", "value": 100}, {"measurement": "Plant response rating, Pigweed", "setting": "[5]; [13]", "value": 95}, {"measurement": "Pigweed plant response rating (0 to 100 scale)", "setting": "[5]; [14]", "value": 98}, {"measurement": "Plant response rating, Pigweed", "setting": "[5]; [15]", "value": 100}, {"measurement": "Plant response rating, Pigweed", "setting": "[5]; [16]", "value": 100}, {"measurement": "Plant response rating, Pigweed", "setting": "[5]; [17]", "value": 80}, {"measurement": "Plant response rating, Pigweed", "setting": "[5]; [18]", "value": 90}, {"measurement": "Plant response rating, Pigweed", "setting": "[5]; [19]", "value": 100}, {"measurement": "Pigweed plant response rating", "setting": "[5]; [20]", "value": 100}, {"measurement": "Plant response rating, Lambsquarters", "setting": "[6]; [13]", "value": 85}, {"measurement": "Lambsquarters plant response rating (0 to 100 scale)", "setting": "[6]; [14]", "value": 100}, {"measurement": "Plant response rating, Lambsquarters", "setting": "[6]; [15]", "value": 100}, {"measurement": "Plant response rating, Lambsquarters", "setting": "[6]; [16]", "value": 100}, {"measurement": "Plant response rating, Lambsquarters", "setting": "[6]; [17]", "value": 95}, {"measurement": "Plant response rating, Lambsquarters", "setting": "[6]; [18]", "value": 98}, {"measurement": "Plant response rating, Lambsquarters", "setting": "[6]; [19]", "value": 100}, {"measurement": "Lambsquarters plant response rating", "setting": "[6]; [20]", "value": 100}, {"measurement": "Plant response rating, Nutsedge, Yellow", "setting": "[7]; [13]", "value": 10}, {"measurement": "Nutsedge, Yellow plant response rating (0 to 100 scale)", "setting": "[7]; [14]", "value": 50}, {"measurement": "Plant response rating, Nutsedge, Yellow", "setting": "[7]; [15]", "value": 65}, {"measurement": "Plant response rating, Nutsedge, Yellow", "setting": "[7]; [16]", "value": 75}, {"measurement": "Plant response rating, Nutsedge, Yellow", "setting": "[7]; [17]", "value": 75}, {"measurement": "Plant response rating, Nutsedge, Yellow", "setting": "[7]; [18]", "value": 95}, {"measurement": "Plant response rating, Nutsedge, Yellow", "setting": "[7]; [19]", "value": 98}, {"measurement": "Nutsedge, Yellow plant response rating", "setting": "[7]; [20]", "value": 98}, {"measurement": "Wheat plant response rating (0 to 100 scale)", "setting": "[8]; [14]", "value": 40}, {"measurement": "Plant response rating, Wheat", "setting": "[8]; [15]", "value": 60}, {"measurement": "Plant response rating, Wheat", "setting": "[8]; [17]", "value": 0}, {"measurement": "Plant response rating, Wheat", "setting": "[8]; [18]", "value": 0}, {"measurement": "Plant response rating, Wheat", "setting": "[8]; [19]", "value": 30}, {"measurement": "Wheat plant response rating", "setting": "[8]; [20]", "value": 50}, {"measurement": "Plant response rating, Crabgrass, Large", "setting": "[9]; [13]", "value": 75}, {"measurement": "Crabgrass, Large plant response rating (0 to 100 scale)", "setting": "[9]; [14]", "value": 85}, {"measurement": "Plant response rating, Crabgrass, Large", "setting": "[9]; [15]", "value": 95}, {"measurement": "Plant response rating, Crabgrass, Large", "setting": "[9]; [16]", "value": 95}, {"measurement": "Plant response rating, Crabgrass, Large", "setting": "[9]; [17]", "value": 100}, {"measurement": "Plant response rating, Crabgrass, Large", "setting": "[9]; [18]", "value": 100}, {"measurement": "Plant response rating, Crabgrass, Large", "setting": "[9]; [19]", "value": 100}, {"measurement": "Crabgrass, Large plant response rating", "setting": "[9]; [20]", "value": 100}, {"measurement": "Plant response rating, Goosegrass", "setting": "[10]; [13]", "value": 75}, {"measurement": "Goosegrass plant response rating (0 to 100 scale)", "setting": "[10]; [14]", "value": 75}, {"measurement": "Plant response rating, Goosegrass", "setting": "[10]; [15]", "value": 85}, {"measurement": "Plant response rating, Goosegrass", "setting": "[10]; [16]", "value": 95}, {"measurement": "Plant response rating, Goosegrass", "setting": "[10]; [17]", "value": 100}, {"measurement": "Plant response rating, Goosegrass", "setting": "[10]; [18]", "value": 100}, {"measurement": "Plant response rating, Goosegrass", "setting": "[10]; [19]", "value": 100}, {"measurement": "Goosegrass plant response rating", "setting": "[10]; [20]", "value": 100}, {"measurement": "Plant response rating, Foxtail, Green", "setting": "[11]; [13]", "value": 85}, {"measurement": "Foxtail, Green plant response rating (0 to 100 scale)", "setting": "[11]; [14]", "value": 90}, {"measurement": "Plant response rating, Foxtail, Green", "setting": "[11]; [15]", "value": 95}, {"measurement": "Plant response rating, Foxtail, Green", "setting": "[11]; [16]", "value": 100}, {"measurement": "Plant response rating, Foxtail, Green", "setting": "[11]; [17]", "value": 95}, {"measurement": "Plant response rating, Foxtail, Green", "setting": "[11]; [18]", "value": 100}, {"measurement": "Plant response rating, Foxtail, Green", "setting": "[11]; [19]", "value": 100}, {"measurement": "Foxtail, Green plant response rating", "setting": "[11]; [20]", "value": 100}, {"measurement": "Plant response rating, Bromegrass, Downy", "setting": "[12]; [13]", "value": 10}, {"measurement": "Bromegrass, Downy plant response rating (0 to 100 scale)", "setting": "[12]; [14]", "value": 30}, {"measurement": "Plant response rating, Bromegrass, Downy", "setting": "[12]; [15]", "value": 60}, {"measurement": "Plant response rating, Bromegrass, Downy", "setting": "[12]; [16]", "value": 85}, {"measurement": "Plant response rating, Bromegrass, Downy", "setting": "[12]; [17]", "value": 0}, {"measurement": "Plant response rating, Bromegrass, Downy", "setting": "[12]; [18]", "value": 50}, {"measurement": "Plant response rating, Bromegrass, Downy", "setting": "[12]; [19]", "value": 55}, {"measurement": "Bromegrass, Downy plant response rating", "setting": "[12]; [20]", "value": 55}]}]}
